Assay results reported in patent publication US7229987B2, “Multicyclic compounds for use as melanin concentrating hormone antagonists in the treatment of obesity and diabetes” (Eli Lilly and Company, priority 2002, dated 2007).

Tested on: Diet-induced obese male Long-Evans rats
Test: Block of MCH-stimulated food intake after intracerebroventricular injection
Type: in vivo, rat
Settings: 82 nmol compound plus 2.1 nmol MCH, ICV; food intake at 2, 4 and 6 hours after injection; n=6 per group; p<0.05 vs. MCH alone; FIG. 1
Protocol: Diet-induced obese male Long-Evans rats (Harlan, Ind.) weighing 500–550 g at time of surgery were anesthetized with isoflurane. Stainless steel cannula guides (5 mm length, 26 gauge, Plastics One, Va.) were stereotaxically implanted in the lateral ventricle anteroposteriority: 0.8 mm caudal to bregma; and lateral: 1.5 mm from midline suture. Animals were individually housed in a temperature regulated room (24° C.) with a reverse 12 hour light/dark cycle (dark 10:00/22:00). Water and food (Teklad 95217, Harlan, Wis.) were available ad libitum. After surgery, animals were allowed to recover 7 days before experimental use. On test day, food was removed 1 hr prior to testing and animals (4 groups, n=6 per group) were injected between 0900 and 1000 with 5 μl of vehicle (artificial CSF), 2.1 nmol MCH, 82 nmol of compound of example 136, and MCH plus compound of example 136. Cumulative food intake was measured at 2, 4 and 6 hours after injection.

Question: With C(=C\c1ccc(-c2nnc(CSCCOc3ccccc3)o2)cc1)/CN1CCCC1 [Example 136, (E)-2-{[(2-phenoxyethyl)thio]methyl}-5-[4-(3-pyrrolidinopropen-1-yl)phenyl]-1,3,4-oxadiazole] as the compound, how does the “effect on orexigenic effect of exogenous MCH (cumulative food intake)” value read?
Answer: completely blocked the orexigenic effect of exogenous MCH
